Entries after “also recorded” stand apart in the source; their conditions may differ.
How the values were obtained:
c-fos promoter = c-fos promoter assay (c-fos-Luci luciferase); assay type: cell-based, bovine; conditions: FIG. 8
Experimental: To further confirm the proliferation ability, an assay using a promoter of proto-oncogene c-fos, which is activated in the earliest stage of cell proliferation, was carried out. The gene c-fos-Luci having luciferase ligated under this promoter, and a candidate gene, were introduced in a weight ratio of 1:1 by lipofection into bovine vascular endothelial cells, and after 24 to 48 hours, the luciferase activity was measured.

tube formation = assay: Tube formation, Kurabo Angiogenesis kit with CD31 staining and image quantification; assay type: cell-based, human; conditions: for tube Area % Increase / tube Length % Increase: Table 2; for Area (% increase): Example 5, Table 4; for Length (% increase): Example 5, Table 5
Experimental: Using a Kurabo Angiogenesis kit (KZ-1000, Kurabo Industries Ltd.), tube formation was examined. A blank, vascular endothelial growth factor-A protein (VEGF-A), pVEGF plasmid (plasmid containing a gene encoding vascular endothelial growth factor), and pSPORT1 (a plasmid not containing a gene encoding vascular endothelial growth factor) were used as controls. […]
Culture was carried out at 37° C. in a 5% CO2 incubator. The medium was exchanged on the 4th, 7th and 9th days of culture with a fresh medium containing the same additives.
CD31 (PECAM-1) staining primary antibody (mouse anti-human CD31 antibody) was diluted 4,000-fold with a blocking solution (Dulbecco's phosphate buffer solution (PBS(−)) containing 1% BSA). 0.5 ml of this primary antibody solution was added to each well and incubated for 60 minutes at 37° C. After incubation was finished, each well was washed 3 times with 1 ml blocking solution.
Then, 0.5 ml of a secondary antibody (goat anti-mouse IgG/alkali phosphatase conjugate) solution, diluted 500-fold with the blocking solution, was added to each well and incubated for 60 minutes at 37° C., and each well was washed 3 times with 1 ml distilled water. Separately, 2 tablets of BCIP/NBT were dissolved in 20 ml distilled water and filtered through a filter with a pore size of 0.2 μm, to prepare a substrate solution. 0.5 ml of the prepared BCIP/NBT substrate solution was added to each well and incubated at 37° C. until the tube turned deep violet (usually in 5 to 10 minutes). After incubation was finished, each well was washed 3 times with 1 ml distilled water, followed by removing the washing solution using suction, and the plate was left to air-dry. After drying, each well was observed under a microscope.
Each well was observed under a 40× magnification microscope and a photograph of each well was taken. An enlarged photograph with the scale of 1 mm magnified 40-fold was taken (FIG. 5).
Each of the resulting images was quantified with angiogenesis quantification software (KSW-5000U, Kurabo Industries Ltd.) according to the following method. The area (left in FIG. 6) and length (right in FIG. 6) of tubes formed in each visual field were measured on the scale by computer analysis with various indicators. […]

[1] = test system: insulin-like growth factor-1 (IGF-1) mRNA; assay: Growth factor mRNA expression level: IGF-1; assay type: cell-based
[2] = test system: phosphatidyl inositol-3-kinase/Akt (PI3K/Akt); assay: Effect on PI3K/Akt activity; conditions: data are not shown
Human endothelial cells = assay: Test Example 2: growth of endothelial cells; assay type: cell-based; conditions: 1, 10 and 100 ng/ml; Test Example 2, present tense
Experimental: Human endothelial cells are sensitized with the HVJ envelope vector and then cultured in the presence or absence of human F2 peptide added externally (1, 10 and 100 ng/ml), to determine the increase (%) of the number of cells. […] Separately, endothelial cells sensitized with the HVJ envelope vector (concentration: 10 μg/ml) are cultured and an increase in the number of cells is measured to determine percentage increase (%). […] Further, the endothelial cells sensitized with the HVJ envelope vector are cultured in the presence or absence of rabbit anti-human F peptide antibody, and then an increase in the number of cells is measured to determine percentage increase (%).

microorganism = assay: Antimicrobial activity, minimum inhibitory concentration on microtiter plate; assay type: cell-based; conditions: Example 7, method only, MIC not given
Experimental: The antimicrobial activity is evaluated according to US National Committee for Clinical Laboratory Standard (NCCL Documents M7-A3). That is, the minimum concentration of the peptide at which microbial growth is inhibited is determined on a microtiter plate. A microorganism is cultured for 16 hours and then the absorbance at A600 thereof measured. From correlation of predetermined turbidity with colony forming unit (CFU), the […] is diluted with a medium to attain a specified CFU. Each microorganism strain is added at about 5×10^5 CFU/ml (final concentration). 5 mM aqueous solution of each peptide and 1.6 mM solution using a medium are prepared and used in serial dilution. 50 μl peptide at each concentration is pipetted into each well of a microtiter plate into which 50 μl/well microbial suspension has been pipetted (the final concentration of the peptide is 3.1 μM to 800 μM). A well to which the peptide was not added is used as the negative control. […] The concentration shown as results is MIC (μM). According to this method, the antimicrobial activity of the F2 peptide is determined.

## MLSLIFLHRLKSMRKRLDRKLRFWHRKNYP (listed as Homo sapiens) [F2 peptide]
c-fos promoter
  activity in c-fos promoter assay of gene fragments in pCDNA3.1: same activity as that of VEGF
Tube formation; 100 ng/ml
  tube Area % Increase: 61%
  tube Length % Increase: 53%
Tube formation; 1 μg/ml
  Area (% increase): 41.8%
  Length (% increase): 38.5%
  tube Area % Increase: 55%
  tube Length % Increase: 50%
Tube formation; 10 μg/ml
  Area (% increase): 131.4%
  Length (% increase): 115.5%
  tube Area % Increase: 132%
  tube Length % Increase: 116%
Tube formation; 10 μg/ml, FIG. 15
  angiogenesis activity compared with LL-37 peptide (in words): higher angiogenesis activity at a dose of 10 μg/ml than that of LL-37 peptide
Tube formation; F2 0.1, 1, 10 μg/ml versus VEGF 50 ng/ml and control peptide
  in vitro angiogenesis activity (in words): larger blood vessels were formed; also recorded: stronger angiogenesis enhancing activity than that of VEGF
[1]; 24 hrs
  IGF-1 mRNA Increased Amount [times]: 46.2 times
[1]; 48 hrs
  IGF-1 mRNA Increased Amount [times]: 97.9 times
[1]; 72 hrs
  IGF-1 mRNA Increased Amount [times]: 243.8 times
[1]; over 72 hours, FIG. 16
  effect on mRNA level of IGF-1 (in words): up-regulated the mRNA level of insulin-like growth factor-1 (IGF-1) potently and specifically in a time-dependent manner
[2]
  effect on PI3K/Akt activity: did not have any direct effect
Human endothelial cells
  growth of endothelial cells with externally added peptide: growth of endothelial cells is promoted
microorganism
  antimicrobial activity: has an antimicrobial activity
